Assay results published in publication PMC10892536, “Establishment and Validation of a Transdermal Drug Delivery System for the Anti-Depressant Drug Citalopram Hydrobromide” (Molecules, 2024).
Structures can show the parent of a compound that is named as a salt.

Assay: In vivo pharmacokinetic study in rabbits
Details: oral gavage, n = 6
Protocol: CTH in the samples was quantified using a CoM 6000 HPLC system (CoMetro Technology, South Plainfield, NJ, USA) with a Comatex C18-AB column (250 × 4.6 mm, 5 μm; 115 Corp, Plainfield, NJ, USA) at 238 nm. The mobile phase was 0.1 mol/L acetonitrile, 0.1 mol/L ammonium acetate, and 0.01 mol/L heptane sodium sulfonate at a ratio of 5:5:1 (v/v). The flow rate was 1.0 mL/min, and the column temperature was 25 °C. All sample solutions were degassed and the injection volume was maintained at 20 μL [44, 53]. The particular application detail on the CoM 6000 HPLC system referred to a previous introduction in our laboratory.
The rabbits were assigned to one of the following three groups: A, B, or C. The abdominal hair of the rabbits in groups B and C was shaved off with an electric hair remover, and after cleaning the skin with normal saline, the optimized TDDS was applied to the abdomens of […] in group B, and blank patches were applied to the abdomens of rabbits in group C. Group A was administered CTH by oral gavage. The oral gavage procedure involved fixing the rabbits with an animal fixator and placing a special mouth expander with a rope attached to their mouth. An elastic rubber catheter was inserted through a small round hole in the mouth expander and pushed into the esophagus along the posterior pharyngeal wall. A solution consistent with the TDDS concentration was added. After gastric perfusion, the catheter and mouth opener were removed. Next, 1 mL aliquots of blood were collected from the marginal auricular vein of the experimental animals at different time intervals (1, 2, 4, 7, 12, and 24 h), placed in heparinized tubes, and centrifuged at 1500× g for 10 min. The resulting plasma supernatant was stored at −70 °C until further analysis. HPLC analyses were carried out by transferring 200 μL of the supernatant to a 1.5 mL polyethylene centrifuge tube. The tubes were then mixed with 300 μL acetonitrile, centrifuged at 2500× g for 10 min, and filtered through a 0.22 μm membrane.
The pharmacokinetic parameters of the conventional oral and sustained-release transdermal preparations were analyzed, including the maximum plasma concentration of the drug (Cmax), the time to reach the Cmax (Tmax), the mean residence time (MRT), and the area under the plasma concentration–time curve from time 0 to t (AUC(0-t)). Two-tailed Student’s t-tests were performed for the Cmax and AUC(0-t) analyses, and a non-parametric test was performed for the Tmax analysis. The AUC(0-t) was calculated using the trapezoidal rule.

AUC(0-t): 8460.37 ± 996.43 ng/h/mL | Cmax (rabbit, plasma): 4.9 ± 0.396 µg/mL | MRT (rabbit, plasma): 2.4 ± 0.25 h | Tmax (rabbit, plasma): 1 h
SMILES: CN(C)CCCC1(c2ccc(F)cc2)OCc2cc(C#N)ccc21 (stereo not shown) [CTH, citalopram hydrobromide]
